Patent US12599599B2, “Anti-inflammatory, anti-cancer, and anti-angiogenic compounds, pharmaceutical compositions, and methods of making and using thereof” (MEDICON PHARMACEUTICALS, INC., priority 2017, dated 2026)

Columns and labels:
[1] = Ocular pharmacokinetics and biodistribution after eye drops; type: in vivo, New Zealand rabbits; design: unit not given here; details: rabbit, 20% eye drops
Description: The pharmacokinetics and biodistribution of compounds 1, 2, and 5 in the eye of rabbits were determined. Each of these compounds was dissolved in phosphate buffered saline (PBS) and used as eye drops. The eye drops were sterilized before application to rabbits by filtration through a 0.2 μm membrane. […] The eyes were harvested and eye tissues and the lacrimal glands were dissected, homogenized and the test compounds were extracted by acetonitrile and analyzed by HPLC, as described under Compound Synthesis described herein. Compounds 1 and 2 were detected at 328 nm, and compound 5 at 260 nm. […] All three compounds can unexpectedly, readily, and rapidly reach the posterior chamber of the eye.

RAW264 murine macrophage = test: 24 hr growth inhibition of cell line; type: cell-based; details: Mus musculus, RAW264.7, 24 h
Description: (§1) The therapeutic efficacy of compounds 2, 5, and 6 was assessed in human and murine cell lines of varied tissue origin, and their 24 hr 50% inhibitory concentration was determined by following standard methodologies. Typical results are shown in the Table 5, indicating a broad anticancer effect.

A549 lung cancer = test: 24 hr growth inhibition of cell line; type: cell-based; details: Homo sapiens
Description: as §1

AGS gastric cancer = test: 24 hr growth inhibition of cell line; type: cell-based; details: Homo sapiens
Description: as §1

HCT116 colon cancer = test: 24 hr growth inhibition of cell line; type: cell-based; details: Homo sapiens, HCT-116, 24 h
Description: as §1

[2] = tested on: oxygen-induced retinopathy; test: Mouse model of oxygen-induced retinopathy; type: in vivo, C57BL/6 mice; details: 10% w/v eye drops 5 times daily, P12 to P17
Description: C57BL/6 mice were reared in 75±2% oxygen air starting on postnatal day 7 (P7) and moved into room air on P12, when they were injected intravitreally with 1 μl of 1% compound 6 solution or vehicle. On P17, the pups were euthanized, both eyes were enucleated and fixed with 4% paraformaldehyde (PFA). Following several intermediate steps, the retina was existed and fixed further with 4% PFA overnight. After appropriate washings, the retina was incubated with 10 μg/ml of FITC-conjugated anti-lectin antibody overnight and retina flat-mounts were prepared on glass slides and evaluated by fluorescence microscopy. The areas of the avascular, neovascular and whole retina were determined using ImageJ software.
In another study, the same mouse model of oxygen-induced retinopathy described above was used. In this study, mice were treated daily with an aqueous solution of compound 2 (pH=4.6, osmolarity=282 mOsm; concentration=10% w/v) from postnatal day 12 to day 17. Compound 2 was administered as one eye drop per eye every 2 hours during the day time for a total of 5 administrations daily. At the end of the study, mice were euthanized and their retinas dissected and studied by immunofluorescence using an antibody against lectin I, isolectin B4 (Vector Laboratories) and evaluated as above.

[3] = Biodistribution in human eyes removed from deceased donors; type: in vitro ADME; details: human eye, 10% (w/v) solution, then 1 h incubation
Description: Compound 6 3% (formulated in polyethylene glycol 155; Tween 80% 1%; Kolliphor EL 10%, made to 100% with normal saline; pH 7.2) was injected iv as a single dose of 30 mg/kg. Its retina levels were 4.9 μM and 1 μM at 1 h and 2 h, respectively (the corresponding sclera levels were similar, 3.2 μM and 2.0 μM). When compound 6 was given ip (in corn oil) as a single dose of 100 mg/kg its retina levels became detectable at 3 h (3.2 μM) and remained at 2.8 μM at 4 h and 6 h. Similarly, after its single topical administration, compound 6 3% (formulated in vitamin E TPGS 16%, mannitol 3.2% boric acid 1.2% and polyquad 0.005%, pH 7.2) produced retinal levels of 2.1 μM at 4 h. The biodistribution of compound 2 in human eyes that were recently removed from deceased donors and kept on ice until used within hours was also evaluated. In this study, compound 2 was dissolved in pure water, its pH was adjusted to 4.8±0.1 and its osmolarity to 290 mOsm. The final concentration of compound 2 was 10% (w/v).
The anterior surface of each was brought into contact with the above solution of compound 2 at 37° C.; the solution level was about 3 mm above the cornea edge. After 1 minute or 10 minutes the eyes were rinsed thoroughly with PBS, incubated for 1 h, and dissected to harvest the retina, choroid, aqueous humor, ciliary body, iris and cornea, which ere assayed by HPLC. As shown in the below table, compound 2 did reach the posterior segment of the eye.

SKOV-3 ovarian cancer = test: 24 hr growth inhibition of cell line; type: cell-based; details: Homo sapiens, SK-OV-3, 24 h
Description: as §1
Ovarian cancer cells were studied in greater detail using the following ovarian cancer cell lines: SKOV-3, OVCAR3, A2780 (and two cell lines derived from it, A2870cis that is resistant to cisplatin, and A2870ADR that is resistant to doxorubicin (Adriamycin)), and HEY (sensitive to paclitaxel (Taxol), and its derivative HEY-T30 that is Taxol-resistant). […]

A2780 xenografts = test: Subcutaneous xenografts in nude mice, platinum sensitive; type: in vivo; details: compound 5 15 mg/kg/day six days a week ip; cis-platinum 5.5 mg/kg one time a week ip
Description: (§2) To determine whether compound 5 is efficacious against chemotherapy-resistant ovarian cancer, three pairs of sensitive and resistant human ovarian cancer cell lines were grown as subcutaneous xenografts in nude mice and treated as summarized in FIG. 10. These cell lines were: A2780, sensitive to both cis-platinum and Adriamycin (doxorubicin); A2780cis, resistant to cis-platinum; A2780ADR, resistant to Adriamycin: HEY, sensitive to Taxol; HEY-T30, resistant to Taxol. The treatments administered were: vehicle control; compound 5, 15 mg/kg/day six days a week, ip; cis-platinum 5.5 mg/kg, one time a week ip; Adriamycin 3 mg/kg twice a week ip; and Taxol 20 mg/kg twice a week ip.

A2780cis xenografts = test: Subcutaneous xenografts in nude mice, cisplatin resistant; type: in vivo; details: compound 5 15 mg/kg/day six days a week ip; cis-platinum 5.5 mg/kg one time a week ip
Description: Compound 6 was also efficacious against chemotherapy-resistant ovarian cancer. […] The effect of compound 6 in cisplatin resistant (A2780cis) and doxorubicin (Adriamycin) resistant (A2780ADR) tumors was studied. Briefly, each of these cell lines was subcutaneously inoculated into athymic nude mice and when the tumor size reached 100-200 mm^3, compound 6 150 mg/kg/day or its vehicle were given i.p. After 11 days of treatment, for the cisplatin-resistant tumors the tumor volume of the vehicle group was 2388±127 mm^3 and for compound 6 group 1032±108 mm^3 (mean±SEM; P<0.02); while for the doxorubicin-resistant tumors these values were: vehicle group=1369±337 mm^3 and compound 6 group=396±182 mm^3 (P<0.02).
as §2

HEY-T30 xenografts = test: Synergy with cyclophosphamide, Taxol resistant subcutaneous xenografts; type: in vivo, nude mice; details: day 21; compound 5 10 mg/kg/day six days a week ip; cyclophosphamide 10 mg/kg six days a week orally; or both
[4] = tested on: Ras palmitoylation in A2780 and A2780cis ovarian cancer cells; test: Ras palmitoylation (resin capture, immunoblot); type: cell-based, human
Description: FIGS. 18A-18B illustrate the effect of compounds 5 and 6 on K-Ras. FIG. 18A: Compound 6 suppressed of K-Ras activation. Cells with mutant K-Ras were treated with compound 6 1.5×IC50 for the respective time periods. K-Ras activity was determined by Ras pull-down (Thermo Scientific; following vendor instructions). K-Ras activation is suppressed 37% at 1 hr and 88% at 2 hrs compared to respective controls. FIG. 18B: Compound 5 suppressed the palmitoylation of Ras in A2780 and A2780cis (resistant to cisplatin) ovarian cancer cells. Palmitoylation is detected by removing S-palmitate groups from proteins, creating new free thiols (where the palmitic acid group used to be) and capturing the previously S-palmitoylated proteins on a resin, using a commercial kit (Badrilla, Leeds, UK). Ras was detected in the eluate by immunoblot.
This effect may be particularly useful in types of cancer characterized by K-Ras mutation such as, for example, pancreatic, lung and ovarian cancer. FIG. 18A illustrates the inhibition of K-Ras activation by compound 6. […] This property of compound 5 is not shared for example by compound 6 or phosphosulindac.

Q: With `CC1=C(CC(=O)N2CCN(CCNS(C)(=O)=O)CC2)c2cc(F)ccc2/C1=C\c1ccc([S+](C)[O-])cc1` (stereo not drawn) [Compound 1] as the compound, how does the “Drug level in Choroid” value ([1]; 1 hr) read?
A: The value was 4.1.

Q: What about the “Drug level in Conjunctiva” value ([1]; 1 hr) of the same compound?
A: Its value is 71.6.

Q: What about the “Drug level in Cornea” value ([1]; 1 hr) of the same compound?
A: The value was 61.8.

Q: And the “Drug level in Iris” value ([1]; 1 hr)?
A: The value was 6.9.

Q: What about the “Drug level in Lens” value ([1]; 1 hr) of the same compound?
A: Its value is 20.2.

Q: And the “Drug level in Retina” value ([1]; 1 hr)?
A: The value was 7.5.

Q: And the “Drug level in Sclera” value ([1]; 1 hr)?
A: The value was 10.1.

Q: And the “Drug level in Vitreous” value ([1]; 1 hr)?
A: Its value is 0.9.

Q: And the “Drug level in Choroid” value ([1]; 3 hr)?
A: Its value is 2.1.

Q: What about the “Drug level in Conjunctiva” value ([1]; 3 hr) of the same compound?
A: The value was 52.5.

Q: And the “Drug level in Cornea” value ([1]; 3 hr)?
A: The value was 16.2.

Q: And the “Drug level in Iris” value ([1]; 3 hr)?
A: The value was 7.6.

Q: And the “Drug level in Lens” value ([1]; 3 hr)?
A: Its value is 4.6.

Q: And the “Drug level in Retina” value ([1]; 3 hr)?
A: Its value is 1.8.

Q: What about the “Drug level in Sclera” value ([1]; 3 hr) of the same compound?
A: The value was 2.5.

Q: What about the “Drug level in Vitreous” value ([1]; 3 hr) of the same compound?
A: The value was 0.5.

Q: With `CCOP(=O)(NCCN1CCN(C(=O)CC2=C(C)/C(=C/c3ccc([S+](C)[O-])cc3)c3ccc(F)cc32)CC1)OCC` (stereo not drawn) [Compound 2] as the compound, how does the “Drug level in Choroid” value ([1]; 2 hr) read?
A: The value was 5.3.

Q: And the “Drug level in Conjunctiva” value ([1]; 2 hr)?
A: Its value is 16.1.

Q: What about the “Drug level in Cornea” value ([1]; 2 hr) of the same compound?
A: Its value is 106.1.

Q: And the “Drug level in Iris” value ([1]; 2 hr)?
A: Its value is 9.9.

Q: What about the “Drug level in Lens” value ([1]; 2 hr) of the same compound?
A: The value was 0.3.

Q: What about the “Drug level in Retina” value ([1]; 2 hr) of the same compound?
A: Its value is 4.1.

Q: What about the “Drug level in Sclera” value ([1]; 2 hr) of the same compound?
A: Its value is 50.7.

Q: What about the “Drug level in Vitreous” value ([1]; 2 hr) of the same compound?
A: The value was 1.2.

Q: And the “Drug level in Choroid” value ([1]; 3 hr)?
A: Its value is 6.4.

Q: What about the “Drug level in Conjunctiva” value ([1]; 3 hr) of the same compound?
A: The value was 13.5.

Q: What about the “Drug level in Cornea” value ([1]; 3 hr) of the same compound?
A: Its value is 46.0.

Q: What about the “Drug level in Iris” value ([1]; 3 hr) of the same compound?
A: Its value is 9.8.

Q: And the “Drug level in Lens” value ([1]; 3 hr)?
A: The value was 4.0.

Q: And the “Drug level in Retina” value ([1]; 3 hr)?
A: The value was 1.7.

Q: And the “Drug level in Sclera” value ([1]; 3 hr)?
A: Its value is 22.4.

Q: And the IC50 (RAW264 murine macrophage)?
A: Its IC50 is 160 µM.

Q: What about the IC50 (A549 lung cancer) of the same compound?
A: The IC50 was 400 µM.

Q: What about the IC50 (AGS gastric cancer) of the same compound?
A: The IC50 was 306 µM.

Q: What about the IC50 (HCT116 colon cancer) of the same compound?
A: The IC50 was 460 µM.

Q: What about the “avascular area of the retina, percentage of the entire retina surface area (mean±SEM)” value ([2]; vehicle 16.8±1.1) of the same compound?
A: Its value is 5.8±0.8%.

Q: What about the “neovascular area of the retina, percentage of the entire retina surface area (mean±SEM)” value ([2]; vehicle 20.7±3.7) of the same compound?
A: Its value is 9.9±2.2%.

Q: What about the “level in aqueous humor” value ([3]; 1 minute exposure) of the same compound?
A: Its value is 1.0 µM.

Q: What about the level in choroid ([3]; 1 minute exposure) of the same compound?
A: The level in choroid was 425.9 µM.

Q: And the “level in ciliary body” value ([3]; 1 minute exposure)?
A: Its value is 124.6 µM.

Q: What about the level in cornea ([3]; 1 minute exposure) of the same compound?
A: The level in cornea was 166.3 µM.

Q: What about the level in iris ([3]; 1 minute exposure) of the same compound?
A: Its level in iris is 43.1 µM.

Q: What about the level in retina ([3]; 1 minute exposure) of the same compound?
A: Its level in retina is 12.6 µM.

Q: And the “level in aqueous humor” value ([3]; 10 minutes exposure)?
A: The value was 5.3 µM.

Q: What about the level in choroid ([3]; 10 minutes exposure) of the same compound?
A: Its level in choroid is 273.5 µM.

Q: And the “level in ciliary body” value ([3]; 10 minutes exposure)?
A: Its value is 206.9 µM.

Q: And the level in cornea ([3]; 10 minutes exposure)?
A: Its level in cornea is 512.6 µM.

Q: And the level in iris ([3]; 10 minutes exposure)?
A: Its level in iris is 10.3 µM.

Q: What about the level in retina ([3]; 10 minutes exposure) of the same compound?
A: Its level in retina is 46.6 µM.

Q: What about the IC50 (SKOV-3 ovarian cancer) of the same compound?
A: The IC50 was 480 µM.

Q: Which results are given for `N.N.[Cl][Pt][Cl]` [cis-platinum, reference compound]?
A: growth of platinum-sensitive xenografts (A2780 xenografts): suppressed the growth; growth of platinum-resistant xenografts (A2780cis xenografts): failed to significantly inhibit tumor growth

Q: Which “inhibition of tumor growth compared to control” value (HEY-T30 xenografts) does the source give for `O=P1(N(CCCl)CCCl)NCCCO1` (stereo not drawn) [cyclophosphamide, reference compound] here?
A: Its value is 23%.

Q: Which “suppression of palmitoylation of Ras” value [4] does the source give for `CCOP(=O)(OCC)OCCCCOC(=O)CC1=C(C)/C(=C/c2ccc([S+](C)[O-])cc2)c2ccc(F)cc21` (stereo not drawn) [phosphosulindac, reference compound] here?
A: The value was “not shared”.
